From US20260062387A1, “SALT-INDUCIBLE KINASE INHIBITOR COMPOUND AND PHARMACEUTICAL COMPOSITION INCLUDING THE SAME” (MITSUBISHI TANABE PHARMA CORPORATION, priority 2023, published 2026)

How the values were obtained:
Assay type in all cases: biochemical
GST-tagged SIK1 = GST-tagged SIK1 (Homo sapiens (Human), UniProt P57059); experiment: SIK1 inhibition test (ADP-Glo Max Assay); conditions: enzyme 20 nM, AMARA Peptide 200 μM, ATP 1 mM, 2 hours room temperature
In short: (§1)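 ADP formed was detected by luciferase luminescence after a 2 h room-temperature reaction with 1 mM ATP, 5 mM MgCl2 and AMARA peptide at 200 μM (SIK1, SIK2) or 100 μM (SIK3). Final GST-enzyme levels were 20 nM SIK1, 3 nM SIK2 and 100 nM SIK3. IC50 came from 16-point concentration-response data.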

GST-tagged SIK3 = GST-tagged SIK3 (Homo sapiens (Human), UniProt Q9Y2K2); experiment: SIK3 inhibition test (ADP-Glo Max Assay); conditions: enzyme 100 nM, AMARA Peptide 100 μM, ATP 1 mM, 2 hours room temperature
In short: as §1

GST-tagged SIK2 = GST-tagged SIK2 (Homo sapiens (Human), UniProt Q9H0K1); experiment: SIK2 inhibition test (ADP-Glo Max Assay); conditions: enzyme 3 nM, AMARA Peptide 200 μM, ATP 1 mM, 2 hours room temperature
In short: as §1

Chain of GST-tagged SIK1 (P57059 whole entry): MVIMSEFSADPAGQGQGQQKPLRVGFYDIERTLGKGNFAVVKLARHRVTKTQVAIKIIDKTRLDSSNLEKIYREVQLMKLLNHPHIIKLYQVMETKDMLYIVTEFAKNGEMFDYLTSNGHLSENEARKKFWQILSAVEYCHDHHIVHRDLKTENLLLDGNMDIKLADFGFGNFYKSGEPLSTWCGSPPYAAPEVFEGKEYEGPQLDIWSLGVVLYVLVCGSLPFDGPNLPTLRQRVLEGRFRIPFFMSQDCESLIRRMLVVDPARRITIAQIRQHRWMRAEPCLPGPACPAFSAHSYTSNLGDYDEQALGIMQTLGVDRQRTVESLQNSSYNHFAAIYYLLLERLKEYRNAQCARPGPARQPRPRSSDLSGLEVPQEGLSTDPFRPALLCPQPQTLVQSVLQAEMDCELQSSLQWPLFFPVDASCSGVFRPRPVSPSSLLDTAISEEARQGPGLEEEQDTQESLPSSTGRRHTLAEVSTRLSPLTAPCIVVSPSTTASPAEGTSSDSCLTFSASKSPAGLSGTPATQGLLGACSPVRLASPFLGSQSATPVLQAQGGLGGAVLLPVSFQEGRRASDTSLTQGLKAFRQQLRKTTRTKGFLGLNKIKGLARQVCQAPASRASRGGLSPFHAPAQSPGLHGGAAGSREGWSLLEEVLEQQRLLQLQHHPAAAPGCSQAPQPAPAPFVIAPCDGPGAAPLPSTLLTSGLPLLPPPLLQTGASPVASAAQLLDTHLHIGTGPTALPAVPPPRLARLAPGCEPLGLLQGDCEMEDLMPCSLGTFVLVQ
Chain of GST-tagged SIK2 (Q9H0K1 whole entry): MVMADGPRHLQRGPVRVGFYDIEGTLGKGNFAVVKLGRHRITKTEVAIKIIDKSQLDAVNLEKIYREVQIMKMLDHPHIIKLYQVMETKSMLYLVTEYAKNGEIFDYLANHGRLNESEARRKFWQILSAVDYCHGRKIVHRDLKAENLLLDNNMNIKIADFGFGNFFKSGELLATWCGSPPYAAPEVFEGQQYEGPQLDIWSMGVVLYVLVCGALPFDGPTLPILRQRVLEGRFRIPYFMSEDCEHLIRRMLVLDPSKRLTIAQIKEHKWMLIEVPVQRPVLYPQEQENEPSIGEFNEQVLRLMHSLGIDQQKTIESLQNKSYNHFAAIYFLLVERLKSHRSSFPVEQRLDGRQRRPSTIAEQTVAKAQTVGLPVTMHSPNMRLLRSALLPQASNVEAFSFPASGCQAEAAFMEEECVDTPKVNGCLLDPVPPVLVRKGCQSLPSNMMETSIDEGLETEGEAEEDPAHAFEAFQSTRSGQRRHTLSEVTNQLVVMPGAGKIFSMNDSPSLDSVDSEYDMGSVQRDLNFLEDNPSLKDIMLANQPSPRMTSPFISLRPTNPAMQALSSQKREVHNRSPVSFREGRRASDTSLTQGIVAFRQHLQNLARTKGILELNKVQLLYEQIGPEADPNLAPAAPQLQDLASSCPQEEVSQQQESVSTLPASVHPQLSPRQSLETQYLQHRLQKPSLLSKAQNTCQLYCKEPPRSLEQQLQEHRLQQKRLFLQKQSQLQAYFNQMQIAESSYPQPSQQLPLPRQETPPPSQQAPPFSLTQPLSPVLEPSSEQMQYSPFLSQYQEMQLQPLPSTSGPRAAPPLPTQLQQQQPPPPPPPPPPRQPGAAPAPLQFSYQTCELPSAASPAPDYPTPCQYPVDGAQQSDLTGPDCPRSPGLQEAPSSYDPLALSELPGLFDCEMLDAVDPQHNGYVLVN
Chain of GST-tagged SIK3 (Q9Y2K2 whole entry): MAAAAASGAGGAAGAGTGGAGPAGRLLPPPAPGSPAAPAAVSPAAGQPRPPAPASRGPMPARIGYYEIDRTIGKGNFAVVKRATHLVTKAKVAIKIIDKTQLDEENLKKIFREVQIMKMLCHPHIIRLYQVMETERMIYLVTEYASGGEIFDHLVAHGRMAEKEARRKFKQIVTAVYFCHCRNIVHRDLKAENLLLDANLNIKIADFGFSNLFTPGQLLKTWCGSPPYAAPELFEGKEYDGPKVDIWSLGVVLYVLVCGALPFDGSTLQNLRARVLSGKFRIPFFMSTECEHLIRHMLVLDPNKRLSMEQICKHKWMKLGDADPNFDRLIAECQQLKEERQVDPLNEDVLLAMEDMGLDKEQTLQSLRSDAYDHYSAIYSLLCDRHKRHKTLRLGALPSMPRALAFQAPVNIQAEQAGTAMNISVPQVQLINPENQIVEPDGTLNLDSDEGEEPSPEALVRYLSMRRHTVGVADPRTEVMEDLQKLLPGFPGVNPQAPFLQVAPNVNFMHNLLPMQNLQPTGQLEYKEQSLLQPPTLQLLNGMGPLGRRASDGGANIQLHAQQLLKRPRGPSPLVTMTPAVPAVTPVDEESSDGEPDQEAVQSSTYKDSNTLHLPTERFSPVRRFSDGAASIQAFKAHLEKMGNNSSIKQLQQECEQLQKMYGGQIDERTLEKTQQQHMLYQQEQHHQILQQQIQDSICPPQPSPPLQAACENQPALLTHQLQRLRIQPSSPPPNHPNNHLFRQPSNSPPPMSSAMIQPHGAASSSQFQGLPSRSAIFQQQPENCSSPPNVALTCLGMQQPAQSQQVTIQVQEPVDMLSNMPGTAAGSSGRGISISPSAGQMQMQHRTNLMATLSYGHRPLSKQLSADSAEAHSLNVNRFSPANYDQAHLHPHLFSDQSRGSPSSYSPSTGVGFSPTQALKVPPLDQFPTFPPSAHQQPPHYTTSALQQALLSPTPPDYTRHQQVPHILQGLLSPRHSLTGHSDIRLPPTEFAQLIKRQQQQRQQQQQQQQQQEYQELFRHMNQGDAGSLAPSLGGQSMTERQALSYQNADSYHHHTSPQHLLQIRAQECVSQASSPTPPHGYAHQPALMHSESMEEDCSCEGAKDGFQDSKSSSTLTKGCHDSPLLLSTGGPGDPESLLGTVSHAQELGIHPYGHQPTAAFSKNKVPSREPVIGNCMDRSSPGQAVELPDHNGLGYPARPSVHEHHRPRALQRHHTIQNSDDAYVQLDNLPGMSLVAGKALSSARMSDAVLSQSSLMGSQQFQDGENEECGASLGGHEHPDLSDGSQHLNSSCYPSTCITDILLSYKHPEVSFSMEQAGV

SMILES | IC50 (GST-tagged SIK1) [nM] | IC50 (GST-tagged SIK3) [nM] | IC50 (GST-tagged SIK2) [nM]
COc1cc(-c2c3c(C#N)cc(-c4cnn(CCC5(O)CCC5)c4)cc3nn2C)cc(OC(F)F)c1C(N)=O [Example 137, 4-[4-cyano-6-[1-[2-(1-hydroxycyclobutyl)ethyl]pyrazol-4-yl]-2-methylindazol-3-yl]-2-(difluoromethoxy)-6-methoxybenzamide] | 11.6 | 4.7 | 5.8
COc1cc(-c2c3c(C#N)cc(-c4cnn(CC5CC5)c4)cc3nn2C)cc(OC(F)F)c1C(N)=O [Example 138, 4-[4-cyano-6-[1-(cyclopropylmethyl)pyrazol-4-yl]-2-methylindazol-3-yl]-2-(difluoromethoxy)-6-methoxybenzamide] | 16.9 | 6.6 | 7.2
CCn1cc(-c2cc(C#N)c3c(-c4cc(OC)c5c(c4)C(C)(C)CNC5=O)n(C)nc3c2)cn1 [Example 139, 6-(1-ethylpyrazol-4-yl)-3-(8-methoxy-4,4-dimethyl-1-oxo-2,3-dihydroisoquinolin-6-yl)-2-methylindazole-4-carbonitrile] | 9 | 12.8 | 8.6
CCCn1cc(-c2cc(C#N)c3c(-c4cc(OC)c5c(c4)C(C)(C)CNC5=O)n(C)nc3c2)cn1 [Example 140, 3-(8-methoxy-4,4-dimethyl-1-oxo-2,3-dihydroisoquinolin-6-yl)-2-methyl-6-(1-propylpyrazol-4-yl)indazol-4-carbonitrile] | 7.8 | 10.3 | 12.3
CCn1cc(-c2cc(C#N)c3c(-c4cc(OC)c(C(N)=O)c(OC(F)F)c4)n(C)nc3c2)cn1 [Example 141, 4-[4-cyano-6-(1-ethylpyrazol-4-yl)-2-methylindazol-3-yl]-2-(difluoromethoxy)-6-methoxybenzamide] | 17.6 | 2.7 | 2
COc1cc(-c2c3c(C#N)cc(-c4cnn(CCC(C)(C)O)c4)cc3nn2C)cc(OC(F)F)c1C(N)=O [Example 142] | 16.2 | 2.7 | 1.9
COCCn1cc(-c2cc(C#N)c3c(-c4cc(OC)c5c(c4)C(C)(C)CNC5=O)n(C)nc3c2)cn1 [Example 143, 3-(8-methoxy-4,4-dimethyl-1-oxo-2,3-dihydroisoquinolin-6-yl)-6-[1-(2-methoxyethyl)pyrazol-4-yl]-2-methylindazole-4-carbonitrile] | 10.5 | 8.6 | 2.2
COc1cc(-c2c3c(C#N)cc(-c4cnn(C[C@H](C)O)c4)cc3nn2C)cc2c1C(=O)NCC2(C)C [Example 144, 6-[1-[(2S)-2-hydroxypropyl]pyrazol-4-yl]-3-(8-methoxy-4,4-dimethyl-1-oxo-2,3-dihydroisoquinolin-6-yl)-2-methylindazole-4-carbonitrile] | 10.1 | 7.8 | 3.7
COc1cc(-c2c3c(OCCO)cc(-c4cnn(C)c4)cc3nn2C)cc(OC(F)F)c1C(N)=O [Example 145, 2-(difluoromethoxy)-4-[4-(2-hydroxyethoxy)-2-methyl-6-(1-methylpyrazol-4-yl)indazol-3-yl]-6-methoxybenzamide] | 10.3 | 19.1 | 1.8
COc1cc(-c2c3c(C#N)cc(-c4cnn(CC(F)(F)F)c4)cc3nn2C)cc2c1C(=O)NCC2(C)C [Example 146, 3-(8-methoxy-4,4-dimethyl-1-oxo-2,3-dihydroisoquinolin-6-yl)-2-methyl-6-[1-(2,2,2-trifluoroethyl)pyrazol-4-yl]indazole-4-carbonitrile] | 12.6 | 7.8 | 3.6
COc1cc(-c2c3c(C#N)cc(-c4cn[nH]c4)cc3nn2C)cc2c1C(=O)NCC2(C)C [Example 147, 3-(8-methoxy-4,4-dimethyl-1-oxo-2,3-dihydroisoquinolin-6-yl)-2-methyl-6-(1H-pyrazol-4-yl)indazol-4-carbonitrile] | 6.3 | 13.4 | 3.2
COc1cc(-c2c3c(C#N)cc(-c4cn[nH]c4)cc3nn2C)cc(OC(F)F)c1C(=O)N[C@@H]1CC1(F)F [Example 148, 4-[4-cyano-2-methyl-6-(1H-pyrazol-4-yl)indazol-3-yl]-N-[(1R)-2,2-difluorocyclopropyl]-2-(difluoromethoxy)-6-methoxybenzamide] | 6 | 1.1 | 1.3
COc1cc(-c2c3c(C#N)cc(-c4cc[nH]n4)cc3nn2C)cc(OC(F)F)c1C(=O)N[C@@H]1CC1(F)F [Example 149, 4-[4-cyano-2-methyl-6-(1H-pyrazol-3-yl)indazol-3-yl]-N-[(1R)-2,2-difluorocyclopropyl]-2-(difluoromethoxy)-6-methoxybenzamide] | 10.4 | 1.6 | 1.3
COc1cc(-c2c3c(C(F)F)cc(-c4cn[nH]c4)cc3nn2C)cc(OC(F)F)c1C(=O)N[C@@H]1CC1(F)F [Example 150, N-[(1R)-2,2-difluorocyclopropyl]-2-(difluoromethoxy)-4-[4-(difluoromethyl)-2-methyl-6-(1H-pyrazol-4-yl)indazol-3-yl]-6-methoxybenzamide] | 10.2 | 1.3 | 2.4
COCCCn1cc(-c2cc(C#N)c3c(-c4cc(OC)c5c(c4)C(C)(C)CNC5=O)n(C)nc3c2)cn1 [Example 151, 3-(8-methoxy-4,4-dimethyl-1-oxo-2,3-dihydroisoquinolin-6-yl)-6-[1-(3-methoxypropyl)pyrazol-4-yl]-2-methylindazole-4-carbonitrile] | 9.8 | 14.2 | 3.5
CCOCCn1cc(-c2cc(C#N)c3c(-c4cc(OC)c5c(c4)C(C)(C)CNC5=O)n(C)nc3c2)cn1 [Example 152, 6-[1-(2-ethoxyethyl)pyrazol-4-yl]-3-(8-methoxy-4,4-dimethyl-1-oxo-2,3-dihydroisoquinolin-6-yl)-2-methylindazole-4-carbonitrile] | 7.2 | 14.4 | 3.4
COc1cc(-c2c3c(C#N)cc(-c4cnn(C[C@@H](C)O)c4)cc3nn2C)cc(OC(F)F)c1C(=O)N[C@@H]1CC1(F)F [Example 153, 4-[4-cyano-6-[1-[(2R)-2-hydroxypropyl]pyrazol-4-yl]-2-methylindazol-3-yl]-N-[(1R)-2,2-difluorocyclopropyl]-2-(difluoromethoxy)-6-methoxybenzamide] | 8.5 | 2.7 | 1.8
COCCn1cc(-c2cc(OC(F)F)c3c(-c4cc(OC)c(C(N)=O)c(OC(F)F)c4)n(C)nc3c2)cn1 [Example 154, 2-(difluoromethoxy)-4-[4-(difluoromethoxy)-6-[1-(2-methoxyethyl)pyrazol-4-yl]-2-methylindazol-3-yl]-6-methoxybenzamide] | 7.6 | 9.5 | 1.2
CCn1cc(-c2cc(OC(F)F)c3c(-c4cc(OC)c(C(N)=O)c(OC(F)F)c4)n(C)nc3c2)cn1 [Example 155, 2-(difluoromethoxy)-4-[4-(difluoromethoxy)-6-(1-ethylpyrazol-4-yl)-2-methylindazol-3-yl]-6-methoxybenzamide] | 7.4 | 5.5 | 1.5
COc1cc(-c2c3c(OCC(F)F)cc(-c4cnn(C)c4)cc3nn2C)cc(OC(F)F)c1C(N)=O [Example 156, 4-[4-(2,2-difluoroethoxy)-2-methyl-6-(1-methylpyrazol-4-yl)indazol-3-yl]-2-(difluoromethoxy)-6-methoxybenzamide] | 4.3 | 2.6 | 0.7
COc1cc(-c2c3c(OCC(F)(F)F)cc(-c4cnn(C)c4)cc3nn2C)cc(OC(F)F)c1C(N)=O [Example 157, 2-(difluoromethoxy)-6-methoxy-4-[2-methyl-6-(1-methylpyrazol-4-yl)-4-(2,2,2-trifluoroethoxy)indazol-3-yl]benzamide] | 5.1 | 7.9 | 1
COc1cc(-c2c3c(C(F)F)cc(-c4cnn([C@H]5CCOC5)c4)cc3nn2C)cc(OC(F)F)c1C(N)=O [Example 158, 2-(difluoromethoxy)-4-[4-(difluoromethyl)-2-methyl-6-[1-[(3S)-oxolan-3-yl]pyrazol-4-yl]indazol-3-yl]-6-methoxybenzamide] | 11.7 | 3.6 | 2.2
COc1cc(-c2c3c(C(F)F)cc(-c4cnn([C@@H]5CCOC5)c4)cc3nn2C)cc(OC(F)F)c1C(N)=O [Example 159, 2-(difluoromethoxy)-4-[4-(difluoromethyl)-2-methyl-6-[1-[(3R)-oxolan-3-yl]pyrazol-4-yl]indazol-3-yl]-6-methoxybenzamide] | 13.8 | 4.6 | 2.8
CC1CNC(=O)c2c(OC(F)F)cc(-c3c4c(C#N)cc(-c5cnn(C)c5)cc4nn3C)cc21 (stereo not drawn) [Example 160, 3-[8-(difluoromethoxy)-4-methyl-1-oxo-3,4-dihydro-2H-isoquinolin-6-yl]-2-methyl-6-(1-methylpyrazol-4-yl)indazol-4-carbonitrile] | 7.5 | 3 | 1
COc1cc(-c2cnn(C)c2)cc2nn(C)c(-c3cc(OC(F)F)c4c(c3)C(C)CNC4=O)c12 (stereo not drawn) [Example 161, 8-(difluoromethoxy)-6-[4-methoxy-2-methyl-6-(1-methylpyrazol-4-yl)indazol-3-yl]-4-methyl-3,4-dihydro-2H-isoquinolin-1-one] | 5.6 | 10 | 1.3
